Measured values reported in US10881709B2, “Immune system modulators and compositions” (Canimguide Therapeutics AB, priority 2015, dated 2021).
Peptide text beside a SMILES is read from it.

Experiments:
[1] = test system: P3028, dHSA, HSA; experiment: ELISA and competition ELISA with rabbit anti-3028 antiserum; assay type: binding, human; settings: competition ELISA, serum L
Protocol: Duplicate wells in Hi-binding microtitre plates (Costar® 2592, Corning® Inc, NY, USA) were coated with 100 μl of P3028 (10 ug/ml), denatured HSA (denHSA, 4.5 ug/ml) or control HSA sample (4.5 ug/ml). All coating reagent were diluted in PBS and incubated at room temperature overnight. The wells where then washed with wash buffer consisting of 0.05% Tween-20 in PBS (Sigma®) followed by blocking for 1 hr at 25° C. with 200 μl 0.5% gelatin prepared from bovine skin (Sigma®) in PBS followed by washing in wash buffer. […] Biotinylated horse anti-rabbit/mouse IgG (Vectastain® ELITE, Vector® Laboratories Inc, CA, USA) diluted 1/5 in ELISA reagent diluent was then added and the plates incubated for 1 h at 25° C. followed by washing. Next, HRP-conjugated streptavidin (R&D Systems® Europe, Ltd, UK) was added. Finally, after washing in wash buffer, substrate solution consisting of H2O2 and tetramethylbenzidine (R&D Systems®) was added. The reaction was stopped with 1M H2504 and the optical density measured as absorbance (A) at dual wavelengths, 450 nm and 570 nm, with a Multiscan® EX microplate reader (Labsystems).
Two antisera, R and L, from two different rabbits were tested for their ability to bind human serum and denatured Human Serum Albumin (dHSA). […] No substantial binding was detected for wells with no coat 202. […]

[2] = test system: PBMCs; experiment: IL-2 induced proliferation of PBMCs, 3H-thymidine incorporation (human ex vivo model); assay type: cell-based; settings: for inhibition of IL-2 induced proliferation: PBMCs from healthy control samples, 7 days, 3H-thymidine; for neutralization of the inhibitory effect of P3028 on IL-2 induced proliferation: fragments alone or in combination
Protocol: 100 μl of RPMI1640 supplemented with 200 IU/ml penicillin, […] streptomycin, 4 mM L-glutamine (all from Sigma® Chemical Co. MO, US) and 20% heat-inactivated human serum (autologous or from cancer patients) were added to uncoated, HSA or HSA/IgG coated tissue culture microtiter plates. PBMC, isolated from healthy individuals or patients with metastatic renal cell carcinoma, were diluted in RPMI/2% HSA at a concentration of 5×10^5/ml and 100 μl were added to the microtiter wells. Interleukin-2 (IL-2, Proleukin®, Chiron®, NL), at a final concentration of 120 IU/well, was added to some wells. Cells were cultured for 7 days in a humidified, 5% CO2-atmosphere at 37° C. Proliferation was assayed by incorporation of 1.6 μCi/well of [^3H]-thymidine (Amersham® Int., UK) during the last 18 hrs. Mean values of dpm (disintegrations per minute) of triplicates were used for the calculations.
Cultures for IL-2 induced proliferation was set up with PBMC from healthy donors and autologous serum as described above with the exception that PBMC were first pre-incubated for 30 min at room temperature with the indicated albumin peptides at a concentration of 10 μg/ml.
Round-bottomed, 96-well tissue culture plates (Costar®, Corning® Inc. NY, US) were pre-coated with HSA only or HSA and pooled human IgG for intravenous injection (Gammagard®, Baxter AS, DK) as follows; HSA was diluted in RPMI1640 without supplements to a concentration of 10 mg/ml. A mixture of 1 mg/ml IgG in a solution of 9 mg/ml HSA in RPMI (HSA/IgG) was also prepared. 200 μl of HSA or HSA/IgG were then added to each well of the plate. The plates were incubated at 4° C. for 30 minutes after which the wells were washed twice with 200 μl of RPMI1640. The coated plates were used immediately. 100 μl of RPMI1640 supplemented with 200 IU/ml penicillin, […] streptomycin, 4 mM L-glutamine (all from Sigma® Chemical Co. MO, US) and 20% heat-inactivated human serum (autologous) were added to the HSA or HSA/IgG coated tissue culture microtiter wells. PBMC, isolated from healthy individuals, were diluted in RPMI/2% HSA and peptides were added directly to the cell suspension at a concentration of 10 μg/ml. One hundred μl of this cell suspension (5×10^4 lymphocytes) was then added per well providing a final concentration of 5 μg/ml peptide per well. IL-2 (Proleukin®, Chiron®, NL), at a final concentration of 120 IU/well, was added to the wells. Cells were cultured for 7 days in a humidified, 5% CO2-atmosphere at 37° C. Proliferation was assayed by incorporation of 1.6 μCi/well of [^3H]-thymidine (Amersham® Int., UK) during the last 18 hrs. Mean values of dpm (disintegrations per minute) of triplicates were used for the calculations.
The model included PBMCs isolated from venous blood samples from healthy blood donors (control samples) or cancer patients. One hundred pI of culture medium (RPMI 1640 Dutch's modification (Gibco®, InVitrogenAB®, Stockholm, Sweden) supplemented with 200 IV/ml penicillin, 200 ug/ml streptomycin, 4 mM L-glutamine (all from Sigma® Chemical Co. MO, US) and 20% heat-inactivated human serum) were added to roundbottomed, 96-well tissue culture plates (Costar®, Corning® Inc. NY, US). […] Control sample wells without IL-2 was set up in parallel. […]
The effect of different peptides on IL-2 induced proliferation was analyzed in the human ex vivo model, using PBMCs from healthy control samples. […] Proliferation was measured as incorporation of ^3H-thymidine during the final 18 hours. […]

[3] = test system: K562 target cells; experiment: NK-cell cytotoxicity (NKTEST, flow cytometry); assay type: cell-based, human; settings: 10 ug/ml peptide, effector:target 40:1, four donors
Protocol: The NK-cell cytotoxic activity of blood mononuclear cells from four healthy donors was tested. Mononuclear cells were separated by standard Ficoll-Paque® Plus (Pharmacia AB, Sweden) density gradient centrifugation from heparinized blood obtained from healthy donors. NK cell cytotoxic activity of the mononuclear cells was then tested using a commercial kit (NKTEST, Orpegen Pharma GmblI, Heidelberg, Germany) following the manufacturers protocol. Briefly, the kit contains cryopreserved, NK-sensitive target cells (K562) labeled with a lipophilic green fluorescent membrane dye, which enables discrimination of effector and target cells. After incubation with effector cells, killed target cells are identified by a DNA-stain, which penetrates and specifically stain the nuclei of dead target cells. This way the percentage of killed targets can be determined by flow cytometry. The mononuclear cells were preincubated for 30 min at 37° C. with the indicated peptides (peptides have been described previously) at 10 ug/ml. Target cells were then added, giving an effector:target ratio of 40:1, and the cell mixture incubated at 37° C. for 3-4 hours. Samples were analysed on a FACSCalibur (BD® Biosciences, San Jose, Calif.).

[4] = Solubility; assay type: physicochemical
[5] = molecular target: P3028 (Homo sapiens, UniProt P02768); experiment: Binding of His-tag labeled P3028 to looped (cyclic) peptides on chips, ELISA; settings: positional scan of looped 6-meres
Protocol: In order to identify cyclic peptides that bind to P3028, all possible variants of di- and tripeptides were synthesized on chips and the binding of the His-tag labeled P 3028 was analyzed using the ELISA-technique. Based on the identified binding motifs, looped 6-meres were produced and tested. […] Positional scans were performed in each position of the lead cyclic peptide was replaced with each of the other 19 L-amino acids. Binding of each of the substituted peptides was tested, and peptide sequences with even better binding capacity than that of the lead peptide were identified.

Row | Compound | binding of rabbit anti-P3028 serum antibodies to P3028 fragments [1] | inhibition of IL-2 induced proliferation [2] | neutralization of the inhibitory effect of P3028 on IL-2 induced proliferation [2] | binding of cyclic peptides to P3028 [5] | other results
1 | VFDEFKPLVE (listed as Homo sapiens) [P3325] | bound preferentially | much weaker | do not inhibit | – | –
2 | CC(C)C[C@H](NC(=O)[C@H](C)NC(=O)[C@H](CC(N)=O)NC(=O)[C@H](CCC(N)=O)NC(=O)[C@H](Cc1ccccc1)NC(=O)[C@H](CCCCN)NC(=O)[C@H](Cc1ccc(O)cc1)NC(=O)[C@H](CCC(=O)O)NC(=O)CNC(=O)[C@H](CC(C)C)NC(=O)[C@H](CCC(N)=O)NC(=O)[C@H](CCC(=O)O)NC(=O)[C@H](Cc1ccccc1)NC(=O)[C@H](CC(C)C)NC(=O)[C@@H](N)CCC(=O)O)C(=O)N[C@@H](CC(C)C)C(=O)N[C@H](C(=O)N[C@@H](CCCNC(=N)N)C(=O)O)C(C)C [P3027] (H-ELFEQLGEYKFQNALLVR-OH; N-terminus and C-terminus assumed) | – | – | – | – | effect on NK-cell cytotoxicity (percent specific lysis of K562) [3]: Inhibition was not seen
3 | CC(C)C[C@H](NC(=O)[C@H](CO)NC(=O)[C@H](CC(C)C)NC(=O)[C@H](Cc1ccc(O)cc1)NC(=O)[C@@H](NC(=O)[C@H](Cc1ccccc1)NC(=O)[C@H](Cc1ccccc1)NC(=O)[C@@H](NC(=O)[C@H](CC(=O)O)NC(=O)[C@H](CC(C)C)NC(=O)[C@H](CCCCN)NC(=O)[C@@H](N)CCCCN)[C@@H](C)O)C(C)C)C(=O)N[C@@H](Cc1ccccc1)C(=O)N[C@H](C(=O)N[C@@H](CCC(=O)O)C(=O)N[C@@H](CCCNC(=N)N)C(=O)O)[C@@H](C)O [SEQ ID NO: 552] (H-KKLDTFFVYLSLFTER-OH; N-terminus and C-terminus assumed) | – | – | – | – | solubility [4]: soluble in aqueous solution
4 | EPQNLIK (listed as Homo sapiens) [P3218] | not | much weaker | do not inhibit | – | –
5 | CLRLNVFCG [SEQ ID NO: 265] | – | – | – | highest affinity | –
6 | CLRLIVMCG [SEQ ID NO: 266] | – | – | – | highest affinity | –
